Earlier results in US7324926B2, “Methods for predicting chemosensitivity or chemoresistance” (Whitehead Institute for Biomedical Research, priority 1999, dated 2008).

Tests used:
[1] = system: central nervous system (CNS) cell lines; conditions: CNS cell lines of the NCI-60 panel; sensitive = log10(GI50) at least 0.8 SD below the mean
[2] = system: ovarian cancer cell lines; conditions: ovarian cancer cell lines of the NCI-60 panel; resistant = log10(GI50) at least 0.8 SD above the mean

Question: Which “cytochalasin D sensitivity class of cell lines (from GI50)” value [1] does the source give for `C=C1[C@@H](C)[C@H]2[C@H](Cc3ccccc3)NC(=O)[C@]23[C@H](OC(C)=O)/C=C/[C@@](C)(O)C(=O)[C@@H](C)C/C=C/[C@H]3[C@@H]1O` [cytochalasin D, Cytochalasin D] here?
Answer: The value was “sensitive”.

Question: What about the “cytochalasin D sensitivity class of cell lines (from GI50)” value [2] of the same molecule?
Answer: Its value is “resistant”.
